Results: ChEMBL document CHEMBL3885881, “DrugMatrix”

Species on record: Rattus norvegicus
Test: DrugMatrix - Regimen: Daily Repeat
Format: toxicity, organism-based, Sprague-Dawley
Design: regimen Daily Repeat, gender Male, age 6-8 weeks
Details: in vivo, po, route oral GAVAGE, vehicle 60 % PEG400; for ABSOLUTE BASOPHIL / ABSOLUTE EOSINOPHIL / ABSOLUTE LYMPHOCYTE / ABSOLUTE MONOCYTE / ABSOLUTE SEGMENTED NEUTROPHIL / BASOPHIL / EOSINOPHIL / ERYTHROCYTE COUNT / HEMATOCRIT / HEMOGLOBIN / LEUKOCYTE COUNT / LYMPHOCYTE / MEAN CORPUSCULAR HEMOGLOBIN / MEAN CORPUSCULAR HEMOGLOBIN CONCENTRATION / MEAN CORPUSCULAR VOLUME / MONOCYTE / NEUTROPHIL / NUCLEATED RED BLOOD CELLS / PLATELET COUNT: tissue Blood; for ALANINE AMINOTRANSFERASE / ALBUMIN / ALKALINE PHOSPHATASE / ASPARTATE AMINOTRANSFERASE / BLOOD UREA NITROGEN / CARBON DIOXIDE / CHLORIDE / CHOLESTEROL / CREATINE PHOSPHOKINASE / CREATININE / GLUCOSE / LACTATE DEHYDROGENASE / LIPASE / PHOSPHORUS / POTASSIUM / SODIUM / TOTAL BILIRUBIN / TOTAL PROTEIN / URIC ACID: tissue Plasma
[1] = 0 mg/kg, 72 h, dose level Control, time 3 day
[2] = 0 mg/kg, 120 h, dose level Control, time 5 day
[3] = 0.001 mg/kg, 72 h, dose level Low, time 3 day

In the case of `N[C@@H](Cc1cc(I)c(Oc2ccc(O)c(I)c2)c(I)c1)C(=O)O` [LIOTHYRONINE], the “ABSOLUTE BASOPHIL” value [1] is reported as 0 CELLS/uL, the “ABSOLUTE EOSINOPHIL” value [1] is reported as 48.67 CELLS/uL and the “ABSOLUTE LYMPHOCYTE” value [1] is reported as 11723.33 CELLS/uL. For the same compound, the “ABSOLUTE MONOCYTE” value [1] was 132.67 CELLS/uL, the “ABSOLUTE SEGMENTED NEUTROPHIL” value [1] was 1362 CELLS/uL and the BASOPHIL [1] was 0%. For the same compound, the EOSINOPHIL [1] was 0.33%, the “ERYTHROCYTE COUNT” value [1] was 5.61 x10E6/uL and the HEMATOCRIT [1] was 33.53%. The HEMOGLOBIN [1] was 13.13 G/DL, the “LEUKOCYTE COUNT” value [1] was 13.27 x10E3/uL and the LYMPHOCYTE [1] was 88.33%. The “MEAN CORPUSCULAR HEMOGLOBIN” value [1] was 23.4 pg, the “MEAN CORPUSCULAR HEMOGLOBIN CONCENTRATION” value [1] was 39.17 G/DL and the “MEAN CORPUSCULAR VOLUME” value [1] was 59.8 fL. The MONOCYTE [1] was 1%, the NEUTROPHIL [1] was 10.33% and the “NUCLEATED RED BLOOD CELLS” value [1] was 0.67 /100WBC. The “PLATELET COUNT” value [1] was 967.33 x10E3/uL, the “ALANINE AMINOTRANSFERASE” value [1] was 60.33 u/L and the ALBUMIN [1] was 4.3 G/DL. For the same compound, the “ALKALINE PHOSPHATASE” value [1] was 403.33 u/L, the “ASPARTATE AMINOTRANSFERASE” value [1] was 87 u/L and the “BLOOD UREA NITROGEN” value [1] was 14.67 mg/dL. The “CARBON DIOXIDE” value [1] was 31 mmol/L, the CHLORIDE [1] was 103 MEQ/L and the CHOLESTEROL [1] was 82.33 mg/dL. For the same compound, the “CREATINE PHOSPHOKINASE” value [1] was 376.33 u/L, the CREATININE [1] was 0.17 mg/dL and the GLUCOSE [1] was 146.33 mg/dL. The “LACTATE DEHYDROGENASE” value [1] was 196.33 u/L, the LIPASE [1] was 12.33 u/L and the PHOSPHORUS [1] was 11.43 mg/dL. The POTASSIUM [1] was 6.79 MEQ/L, the SODIUM [1] was 147.27 MEQ/L and the “TOTAL BILIRUBIN” value [1] was 0.2 mg/dL. The “TOTAL PROTEIN” value [1] was 6.13 G/DL, the “URIC ACID” value [1] was 1.33 mg/dL and the “ABSOLUTE BASOPHIL” value [2] was 0 CELLS/uL. For the same compound, the “ABSOLUTE EOSINOPHIL” value [2] was 19 CELLS/uL, the “ABSOLUTE LYMPHOCYTE” value [2] was 4849 CELLS/uL and the “ABSOLUTE MONOCYTE” value [2] was 38 CELLS/uL. The “ABSOLUTE SEGMENTED NEUTROPHIL” value [2] was 660.67 CELLS/uL, the BASOPHIL [2] was 0% and the EOSINOPHIL [2] was 0.33%. For the same compound, the “ERYTHROCYTE COUNT” value [2] was 4.95 x10E6/uL, the HEMATOCRIT [2] was 29.67% and the HEMOGLOBIN [2] was 11.53 G/DL. For the same compound, the “LEUKOCYTE COUNT” value [2] was 5.57 x10E3/uL, the LYMPHOCYTE [2] was 87.67% and the “MEAN CORPUSCULAR HEMOGLOBIN” value [2] was 23.33 pg. The “MEAN CORPUSCULAR HEMOGLOBIN CONCENTRATION” value [2] was 38.9 G/DL, the “MEAN CORPUSCULAR VOLUME” value [2] was 59.87 fL and the MONOCYTE [2] was 0.67%. The NEUTROPHIL [2] was 11.33%, the “NUCLEATED RED BLOOD CELLS” value [2] was 0.33 /100WBC and the “PLATELET COUNT” value [2] was 653.33 x10E3/uL. For the same compound, the “ALANINE AMINOTRANSFERASE” value [2] was 48.33 u/L, the ALBUMIN [2] was 4.27 G/DL and the “ALKALINE PHOSPHATASE” value [2] was 396 u/L. The “ASPARTATE AMINOTRANSFERASE” value [2] was 75.67 u/L, the “BLOOD UREA NITROGEN” value [2] was 15 mg/dL and the “CARBON DIOXIDE” value [2] was 31.33 mmol/L. For the same compound, the CHLORIDE [2] was 103 MEQ/L, the CHOLESTEROL [2] was 76.33 mg/dL and the “CREATINE PHOSPHOKINASE” value [2] was 182.67 u/L. For the same compound, the CREATININE [2] was 0.2 mg/dL, the GLUCOSE [2] was 181 mg/dL and the “LACTATE DEHYDROGENASE” value [2] was 88 u/L. It also gave an LIPASE [2] of 8.33 u/L, a PHOSPHORUS [2] of 12.33 mg/dL and a POTASSIUM [2] of 6.09 MEQ/L. The SODIUM [2] was 146.47 MEQ/L, the “TOTAL BILIRUBIN” value [2] was 0.17 mg/dL and the “TOTAL PROTEIN” value [2] was 6.3 G/DL. The “URIC ACID” value [2] was 1.43 mg/dL, the “ABSOLUTE BASOPHIL” value [3] was 0 CELLS/uL and the “ABSOLUTE EOSINOPHIL” value [3] was 72.67 CELLS/uL. For the same compound, the “ABSOLUTE LYMPHOCYTE” value [3] was 12680.33 CELLS/uL, the “ABSOLUTE MONOCYTE” value [3] was 379.67 CELLS/uL and the “ABSOLUTE SEGMENTED NEUTROPHIL” value [3] was 1067.33 CELLS/uL. The BASOPHIL [3] was 0%, the EOSINOPHIL [3] was 0.67% and the “ERYTHROCYTE COUNT” value [3] was 5.31 x10E6/uL. For the same compound, the HEMATOCRIT [3] was 34.1%, the HEMOGLOBIN [3] was 13.1 G/DL and the “LEUKOCYTE COUNT” value [3] was 14.2 x10E3/uL. For the same compound, the LYMPHOCYTE [3] was 89.33%, the “MEAN CORPUSCULAR HEMOGLOBIN” value [3] was 24.67 pg and the “MEAN CORPUSCULAR HEMOGLOBIN CONCENTRATION” value [3] was 38.47 G/DL. For the same compound, the “MEAN CORPUSCULAR VOLUME” value [3] was 64.17 fL, the MONOCYTE [3] was 2.33% and the NEUTROPHIL [3] was 7.67%. The “NUCLEATED RED BLOOD CELLS” value [3] was 0 /100WBC, the “PLATELET COUNT” value [3] was 1001 x10E3/uL and the “ALANINE AMINOTRANSFERASE” value [3] was 51 u/L. The ALBUMIN [3] was 4.37 G/DL, the “ALKALINE PHOSPHATASE” value [3] was 321 u/L and the “ASPARTATE AMINOTRANSFERASE” value [3] was 82.33 u/L. For the same compound, the “BLOOD UREA NITROGEN” value [3] was 17.33 mg/dL, the “CARBON DIOXIDE” value [3] was 29.67 mmol/L and the CHLORIDE [3] was 105.33 MEQ/L. The CHOLESTEROL [3] was 79.67 mg/dL, the “CREATINE PHOSPHOKINASE” value [3] was 347 u/L and the CREATININE [3] was 0.16 mg/dL. For the same compound, the GLUCOSE [3] was 144 mg/dL, the “LACTATE DEHYDROGENASE” value [3] was 167.33 u/L and the LIPASE [3] was 13 u/L. The PHOSPHORUS [3] was 12.4 mg/dL, the POTASSIUM [3] was 6.56 MEQ/L and the SODIUM [3] was 146.23 MEQ/L. The “TOTAL BILIRUBIN” value [3] was 0.2 mg/dL and the “TOTAL PROTEIN” value [3] was 6.03 G/DL.
